Values of other authors in patent EP0497915B1, “hPTH (1-37) FRAGMENT, ITS PRODUCTION, DRUG CONTAINING IT AND ITS USE” (HaemoPep Pharma GmbH, priority 1989, dated 1991).

Legend:
hPTH-(53-84)-RIA = details: commercial RIA (Immundiagnostik), manufacturer's data
hPTH-(44-68)-RIA = details: commercial RIA (Immundiagnostik), manufacturer's data

Row | Molecule | Kreuzreaktion im hPTH-(53-84)-RIA (hPTH-(53-84)-RIA) | Kreuzreaktion im hPTH-(44-68)-RIA (hPTH-(44-68)-RIA)
1 | hPTH-(1-34): bekanntes synthetisches N-terminales hPTH-Fragment (SVSEIQLMHNLGKHLNSMERVEWLRKKLQDVHNF; Parathyroid hormone; UniProt P01270 32-65, looked up, fragment) | keine Kreuzreaktion | keine Kreuzreaktion
2 | hPTH-(44-68): synthetisches hPTH-Peptid, Standard des mittelregionalen RIA (RDAGSQRPRKKEDNVLVESHEKSLG; Parathyroid hormone; UniProt P01270 75-99, looked up, fragment) | keine Kreuzreaktion | –
3 | hPTH-(28-48): synthetisches hPTH-Peptid (LQDVHNFVALGAPLAPRDAGS; Parathyroid hormone; UniProt P01270 59-79, looked up, fragment) | keine Kreuzreaktion | keine Kreuzreaktion
4 | hPTH-(53-84): synthetisches hPTH-Peptid, Standard des C-terminalen RIA (KKEDNVLVESHEKSLGEADKADVNVLTKAKSQ; Parathyroid hormone; UniProt P01270 84-115, looked up, fragment) | – | 100%
5 | hPTH-(64-84): synthetisches hPTH-Peptid (EKSLGEADKADVNVLTKAKSQ; Parathyroid hormone; UniProt P01270 95-115, looked up, fragment) | 100% | keine Kreuzreaktion
6 | hPTH-(1-84): sezerniertes PTH-Molekül aus 84 Aminosäuren (peptide, UniProt P01270 32-115, looked up, Parathyroid hormone, sezerniertes PTH-Molekül aus 84 Aminosäuren) Parathyroid hormone: SVSEIQLMHNLGKHLNSMERVEWLRKKLQDVHNFVALGAPLAPRDAGSQRPRKKEDNVLVESHEKSLGEADKADVNVLTKAKSQ | 100% | 100%
